We go through seven compounds from US7947696B2, “2-amino-4-phenylquinazoline derivatives and the use thereof as HSP90 modulators” (Merck Patent GmbH, priority 2005, dated 2011).

For orientation: IC50 means the midpoint of a concentration-inhibition curve.

Counter-ions that a name gives are not always drawn.

The target in this experiment is T1, Recombinant human HSP90α (Homo sapiens, UniProt P07900).
T1 construct: host or cells: E. coli
The experiment can be described thus: radioligand filter binding test, competition with [3H]17AAG for HSP90. The following applies: [3H]17AAG 0.08 μM, HSP90 1.5 μg/assay, 22° C., 30 min, pH 7.0. The source says: The binding of geldanamycin or 17-allylamino-17-demethoxygeldanamycin (17AAG) to HSP90 and competitive inhibition thereof can be utilised in order to determine the inhibitory activity of the compounds according to the invention (Carreras et al. 2003, Chiosis et al. 2002).
In the specific case, a radioligand filter binding test is used. The radioligand used here is tritium-labelled 17-allylaminogeldanamycin, [3H]17AAG. This filter binding test allows a targeted search for inhibitors which interfere with the ATP binding site.
Recombinant human HSP90α(E. coli expressed, 95% purity); [3H]17AAG (17-allylaminogeldanamycin, [allylamino-2,3-^3H. Specific activity: 1.11×10^12 Bq/mmol (Moravek, MT-1717); HEPES filter buffer (50 mM HEPES, pH 7.0, 5 mM MgCl2, BSA 0.01%) Multiscreen FB (1 μm) filter plate (Millipore, MAFBNOB 50).
The 96-well microtitre filter plates are firstly irrigated and coated with 0.1% of polyethylenimine.
The test is carried out under the following conditions: • Reaction temperature 22° C. • Reaction time: 30 min., shaking at 800 rpm • Test volume: 50 μl • Final concentrations: • 50 mM HEPES HCl, pH 7.0, 5 mM MgCl2, 0.01% (w/v) BSA • HSP90:1.5 μg/assay • [3H]17AAG: 0.08 μM.
At the end of the reaction, the supernatant in the filter plate is removed by suction with the aid of a vacuum manifold (Multiscreen Separation System, Millipore), and the filter is washed twice.
The filter plates are then measured in a beta counter (Microbeta, Wallac) with scintillator (Microscint 20, Packard).
“% of control” is determined from the “counts per minutes” values and the IC-50 value of a compound is calculated therefrom.
`COc1ccc(-c2nc(N)nc3ccc(Cl)cc23)cc1OC` [Compound A134, 2-amino-6-chloro-4-(3,4-dimethoxyphenyl)quinazoline]: the IC50 was 0.55 µM.

On to `COc1ccc(-c2nc(N)nc3ccc(Cl)cc23)cc1OCCCC(=O)O` [Compound A111, 2-amino-6-chloro-4-[3-(3-carboxypropoxy)-4-methoxyphenyl]quinazoline sodium salt], for which the IC50 was determined as 0.58 µM.

Take `COc1ccc(-c2nc(N)nc3ccc(Cl)cc23)cc1OCc1ccc(-c2nnn[nH]2)cc1` [Compound A138, 2-amino-6-chloro-4-{3-[4-(1H-tetrazol-5-yl)benzyloxy]-4-methoxyphenyl}quinazoline]: the IC50 was determined as 0.54 µM.

On to `COc1ccc(-c2nc(N)nc3ccc(Cl)cc23)cc1OCc1ccc(C(=O)O)cc1` [Compound A113, 2-amino-6-chloro-4-[3-(4-carboxybenzyloxy)-4-methoxyphenyl]quinazoline sodium salt], for which the IC50 was 0.37 µM.

In the case of `COC(=O)c1ccc(COc2cc(-c3nc(N)nc4ccc(Cl)cc34)ccc2OC)cc1` [Compound A109, 2-amino-6-chloro-4-[3-(4-methoxycarbonylbenzyloxy)-4-methoxyphenyl]quinazoline], the IC50 came to 0.8 µM.

Take `COC(=O)c1cccc(COc2cc(-c3nc(N)nc4ccc(Cl)cc34)ccc2OC)c1` [Compound A108, 2-amino-6-chloro-4-[3-(3-methoxycarbonylbenzyloxy)-4-methoxyphenyl]quinazoline]: the IC50 is 0.95 µM.

Take `COc1ccc(-c2nc(N)nc3ccc(Cl)cc23)cc1OCc1cccc(C(=O)O)c1` [Compound A112, 2-amino-6-chloro-4-[3-(3-carboxybenzyloxy)-4-methoxyphenyl]quinazoline sodium salt]: the IC50 is 0.47 µM.
